According to ChEMBL document CHEMBL3217756, “Biological and computational evaluation of an oxadiazole derivative (MD77) as a new lead for direct STAT3 inhibitors” (Medchemcomm, 2012):

Key:
HL-60(TB) = experiment: Cytotoxicity against human HL-60(TB) cells after 48 hrs by sulforhodamine B assay; assay type: functional; settings: HL-60, 48 h
Malme-3M = experiment: Cytotoxicity against human MALME-3M cells after 48 hrs by sulforhodamine B assay; assay type: functional
SF-268 = experiment: Cytotoxicity against human SF268 cells after 48 hrs by sulforhodamine B assay; assay type: functional; settings: SF-268, 48 h
MCF7 = experiment: Cytotoxicity against human MCF7 cells after 48 hrs by sulforhodamine B assay; assay type: functional; settings: MCF7, 48 h
SNB-19 = experiment: Cytotoxicity against human SNB19 cells after 48 hrs by sulforhodamine B assay; assay type: functional; settings: SNB-19, 48 h
KM12 = experiment: Cytotoxicity against human KM12 cells after 48 hrs by sulforhodamine B assay; assay type: functional; settings: KM12, 48 h
T47D = experiment: Cytotoxicity against human T47D cells after 48 hrs by sulforhodamine B assay; assay type: functional
SNB-75 = experiment: Cytotoxicity against human SNB75 cells after 48 hrs by sulforhodamine B assay; assay type: functional; settings: SNB-75, 48 h
[1] = target: Growth factor receptor-bound protein 2 (Homo sapiens, UniProt P62993); experiment: Inhibition of SH2 domain of GRB2 (unknown origin) using FITC-PSpYVNVQN as substrate at 30 uM preincubated for 15 mins before substrate addition measured after 90 mins by alphascreen based assay
Growth factor receptor-bound protein 2, sequence (P62993 whole entry, looked up, the tested form may be a part): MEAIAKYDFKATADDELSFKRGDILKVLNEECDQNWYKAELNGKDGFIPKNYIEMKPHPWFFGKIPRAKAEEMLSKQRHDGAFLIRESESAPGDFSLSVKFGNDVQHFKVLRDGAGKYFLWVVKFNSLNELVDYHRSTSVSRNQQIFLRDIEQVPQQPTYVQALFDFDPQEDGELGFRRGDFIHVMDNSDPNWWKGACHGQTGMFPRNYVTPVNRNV

MDA-MB-468 = experiment: Cytotoxicity against human MDA-MB-468 cells after 48 hrs by sulforhodamine B assay; assay type: functional; settings: MDA-MB-468, 48 h
[2] = target: Signal transducer and activator of transcription 1-alpha/beta (Homo sapiens, UniProt P42224); experiment: Inhibition of SH2 domain of STAT1 (unknown origin) using FITC-GpYDKPHVL as substrate preincubated for 15 mins before substrate addition measured after 90 mins by alphascreen based assay
Signal transducer and activator of transcription 1-alpha/beta, sequence (P42224 whole entry, the tested form may be a part): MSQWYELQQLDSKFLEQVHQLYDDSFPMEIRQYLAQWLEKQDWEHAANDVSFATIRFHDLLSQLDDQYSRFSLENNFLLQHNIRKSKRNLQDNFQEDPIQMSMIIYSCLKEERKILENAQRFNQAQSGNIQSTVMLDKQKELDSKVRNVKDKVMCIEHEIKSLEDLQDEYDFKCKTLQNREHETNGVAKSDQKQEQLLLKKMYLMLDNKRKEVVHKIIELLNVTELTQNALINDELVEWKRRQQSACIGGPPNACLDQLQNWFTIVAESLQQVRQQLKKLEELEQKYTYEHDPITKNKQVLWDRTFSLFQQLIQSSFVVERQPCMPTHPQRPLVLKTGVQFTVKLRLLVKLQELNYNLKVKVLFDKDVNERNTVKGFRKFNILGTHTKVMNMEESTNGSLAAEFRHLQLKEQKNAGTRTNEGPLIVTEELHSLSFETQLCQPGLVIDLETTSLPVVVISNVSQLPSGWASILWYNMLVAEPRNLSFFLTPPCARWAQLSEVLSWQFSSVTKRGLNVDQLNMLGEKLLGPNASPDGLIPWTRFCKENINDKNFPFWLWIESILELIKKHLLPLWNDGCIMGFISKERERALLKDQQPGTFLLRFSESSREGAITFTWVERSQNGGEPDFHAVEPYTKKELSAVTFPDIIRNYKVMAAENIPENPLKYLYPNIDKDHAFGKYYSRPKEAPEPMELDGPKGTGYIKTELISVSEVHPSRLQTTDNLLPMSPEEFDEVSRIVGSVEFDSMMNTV

[3] = Cytotoxicity against human OVCAR3 cells after 48 hrs by sulforhodamine B assay; assay type: functional; settings: OVCAR-3, 48 h
SN12C = experiment: Cytotoxicity against human SN12C cells after 48 hrs by sulforhodamine B assay; assay type: functional
HCC 2998 = experiment: Cytotoxicity against human HCC2998 cells after 48 hrs by sulforhodamine B assay; assay type: functional; settings: HCC 2998, 48 h
[4] = Cytotoxicity against human UACC257 cells after 48 hrs by sulforhodamine B assay; assay type: functional; settings: UACC-257, 48 h
CAKI-1 = experiment: Cytotoxicity against human CAKI-1 cells after 48 hrs by sulforhodamine B assay; assay type: functional; settings: CAKI-1, 48 h
M14 = experiment: Cytotoxicity against human M14 cells after 48 hrs by sulforhodamine B assay; assay type: functional; settings: M14, 48 h
U-251 = experiment: Cytotoxicity against human U251 cells after 48 hrs by sulforhodamine B assay; assay type: functional; settings: U-251, 48 h
SF-295 = experiment: Cytotoxicity against human SF295 cells after 48 hrs by sulforhodamine B assay; assay type: functional; settings: SF-295, 48 h
[5] = Cytotoxicity against human OVCAR4 cells after 48 hrs by sulforhodamine B assay; assay type: functional; settings: OVCAR-4, 48 h
SW-620 = experiment: Cytotoxicity against human SW620 cells after 48 hrs by sulforhodamine B assay; assay type: functional; settings: SW-620, 48 h
[6] = read-out: LC50 (the source's name)
[7] = read-out: pLC50 (the source's name) (converted)

Molecule `O=C(Nc1nonc1-c1ccc(Cl)cc1)c1ccc(C(F)(F)F)cc1` has a GI50 (HL-60(TB); read-out: GI50) of 0.546 µM, a CC50 (HL-60(TB); [6]) greater than 100 µM and a TGI (HL-60(TB); read-out: TGI) of 2.85 µM. The GI50 (HL-60(TB); read-out: pGI50 (converted)) was 0.55 µM, the CC50 (HL-60(TB); [7]) was greater than 100 µM and the TGI (HL-60(TB); read-out: pTGI (converted)) was 2.88 µM. For the same molecule, the GI50 (Malme-3M; read-out: GI50) was 1.52 µM, the LC50 (Malme-3M; read-out: LC50) was greater than 100 µM and the TGI (Malme-3M; read-out: TGI) was 21.8 µM. It also gave a GI50 (Malme-3M; read-out: pGI50 (converted)) of 1.51 µM, an LC50 (Malme-3M; read-out: pLC50 (converted)) greater than 100 µM and a TGI (Malme-3M; read-out: pTGI (converted)) of 21.9 µM. For the same molecule, the GI50 (SF-268; read-out: GI50) was 1.81 µM, the LC50 (SF-268; read-out: LC50) was greater than 100 µM and the TGI (SF-268; read-out: TGI) was greater than 100 µM. For the same molecule, the GI50 (SF-268; read-out: pGI50 (converted)) was 1.82 µM, the LC50 (SF-268; read-out: pLC50 (converted)) was greater than 100 µM and the TGI (SF-268; read-out: pTGI) was greater than 100 µM. For the same molecule, the GI50 (MCF7; read-out: GI50) was 2.84 µM, the CC50 (MCF7; [6]) was greater than 100 µM and the TGI (MCF7; read-out: TGI) was 8.15 µM. The GI50 (MCF7; read-out: pGI50 (converted)) was 2.82 µM, the CC50 (MCF7; [7]) was greater than 100 µM and the TGI (MCF7; read-out: pTGI (converted)) was 8.13 µM. For the same molecule, the GI50 (SNB-19; read-out: GI50) was 3.38 µM, the CC50 (SNB-19; [6]) was greater than 100 µM and the TGI (SNB-19; read-out: TGI) was greater than 100 µM. It also gave a GI50 (SNB-19; read-out: pGI50 (converted)) of 3.39 µM, a CC50 (SNB-19; [7]) greater than 100 µM and a TGI (SNB-19; read-out: pTGI) greater than 100 µM. The GI50 (KM12; read-out: GI50) was 3.06 µM, the CC50 (KM12; [6]) was greater than 100 µM and the TGI (KM12; read-out: TGI) was greater than 100 µM. The GI50 (KM12; read-out: pGI50 (converted)) was 3.09 µM, the CC50 (KM12; [7]) was greater than 100 µM and the TGI (KM12; read-out: pTGI) was greater than 100 µM. For the same molecule, the GI50 (T47D; read-out: GI50) was 3.13 µM, the CC50 (T47D; [6]) was greater than 100 µM and the TGI (T47D; read-out: TGI) was greater than 100 µM. It also gave a GI50 (T47D; read-out: pGI50 (converted)) of 3.16 µM, a CC50 (T47D; [7]) greater than 100 µM and a TGI (T47D; read-out: pTGI) greater than 100 µM. It also gave a GI50 (SNB-75; read-out: GI50) of 1.79 µM, a CC50 (SNB-75; [6]) greater than 100 µM and a TGI (SNB-75; read-out: TGI) of 7.54 µM. It also gave a GI50 (SNB-75; read-out: pGI50 (converted)) of 1.78 µM, a CC50 (SNB-75; [7]) greater than 100 µM and a TGI (SNB-75; read-out: pTGI (converted)) of 7.59 µM. It also gave an inhibition [1] of 10.5%, a GI50 (MDA-MB-468; read-out: GI50) of 3.36 µM and an LC50 (MDA-MB-468; read-out: LC50) greater than 100 µM. The TGI (MDA-MB-468; read-out: TGI) was 27 µM, the GI50 (MDA-MB-468; read-out: pGI50 (converted)) was 3.39 µM and the LC50 (MDA-MB-468; read-out: pLC50 (converted)) was greater than 100 µM. It also gave a TGI (MDA-MB-468; read-out: pTGI (converted)) of 26.9 µM, an IC50 [2] of 7.2 µM and a GI50 ([3]; read-out: GI50) of 2.18 µM. The CC50 [3, 6] was greater than 100 µM, the TGI ([3]; read-out: TGI) was 7.9 µM and the GI50 ([3]; read-out: pGI50 (converted)) was 2.19 µM. For the same molecule, the CC50 [3, 7] was greater than 100 µM, the TGI ([3]; read-out: pTGI (converted)) was 7.94 µM and the GI50 (SN12C; read-out: GI50) was 2.87 µM. It also gave a CC50 (SN12C; [6]) greater than 100 µM, a TGI (SN12C; read-out: TGI) greater than 100 µM and a GI50 (SN12C; read-out: pGI50 (converted)) of 2.88 µM. It also gave a CC50 (SN12C; [7]) greater than 100 µM, a TGI (SN12C; read-out: pTGI) greater than 100 µM and a GI50 (HCC 2998; read-out: GI50) of 3.63 µM. For the same molecule, the CC50 (HCC 2998; [6]) was greater than 100 µM, the TGI (HCC 2998; read-out: TGI) was greater than 100 µM and the GI50 (HCC 2998; read-out: pGI50 (converted)) was 3.63 µM. The CC50 (HCC 2998; [7]) was greater than 100 µM, the TGI (HCC 2998; read-out: pTGI) was greater than 100 µM and the GI50 ([4]; read-out: GI50) was 2.17 µM. For the same molecule, the LC50 (50% lethal concentration) ([4]; read-out: LC50) was greater than 100 µM, the TGI ([4]; read-out: TGI) was 9.02 µM and the GI50 ([4]; read-out: pGI50 (converted)) was 2.19 µM. It also gave an LC50 (50% lethal concentration) ([4]; read-out: pLC50 (converted)) greater than 100 µM, a TGI ([4]; read-out: pTGI (converted)) of 9.12 µM and a GI50 (CAKI-1; read-out: GI50) of 1.9 µM. For the same molecule, the CC50 (CAKI-1; [6]) was greater than 100 µM, the TGI (CAKI-1; read-out: TGI) was 7.59 µM and the GI50 (CAKI-1; read-out: pGI50 (converted)) was 1.91 µM. It also gave a CC50 (CAKI-1; [7]) greater than 100 µM, a TGI (CAKI-1; read-out: pTGI (converted)) of 7.59 µM and a GI50 (M14; read-out: GI50) of 2.04 µM. It also gave a CC50 (M14; [6]) greater than 100 µM, a TGI (M14; read-out: TGI) greater than 100 µM and a GI50 (M14; read-out: pGI50 (converted)) of 2.04 µM. For the same molecule, the CC50 (M14; [7]) was greater than 100 µM, the TGI (M14; read-out: pTGI) was greater than 100 µM and the GI50 (U-251; read-out: GI50) was 2.19 µM. It also gave an LC50 (U-251; read-out: LC50) greater than 100 µM, a TGI (U-251; read-out: TGI) greater than 100 µM and a GI50 (U-251; read-out: pGI50 (converted)) of 2.19 µM. The LC50 (U-251; read-out: pLC50 (converted)) was greater than 100 µM, the TGI (U-251; read-out: pTGI) was greater than 100 µM and the GI50 (SF-295; read-out: GI50) was 1.02 µM. The CC50 (SF-295; [6]) was 43.4 µM, the TGI (SF-295; read-out: TGI) was 3.72 µM and the GI50 (SF-295; read-out: pGI50 (converted)) was 1.02 µM. The CC50 (SF-295; [7]) was greater than 100 µM, the TGI (SF-295; read-out: pTGI (converted)) was 3.72 µM and the GI50 ([5]; read-out: GI50) was 1.83 µM. The TGI ([5]; read-out: TGI) was 4.21 µM, the GI50 ([5]; read-out: pGI50 (converted)) was 1.82 µM and the TGI ([5]; read-out: pTGI (converted)) was 4.17 µM. For the same molecule, the GI50 (SW-620; read-out: GI50) was 2.82 µM, the CC50 (SW-620; [6]) was greater than 100 µM and the TGI (SW-620; read-out: TGI) was greater than 100 µM. The GI50 (SW-620; read-out: pGI50 (converted)) was 2.82 µM, the CC50 (SW-620; [7]) was greater than 100 µM and the TGI (SW-620; read-out: pTGI) was greater than 100 µM.
